# Assay results: ChEMBL document CHEMBL1126797 (J Med Chem, 1993); call rule not given here
# Key:
# Mus musculus [1] = assay: Median survival time of treated/control L1210 leukemic mice after i.v. drug dosing on hours 1 and 5; assay type: functional
# Mus musculus [2] = assay: Toxic dose in L1210 lymphoid leukemic mice at dose of 20 mg/kg after i.v. drug dosing on hours 1 and 5; NT means not toxic; assay type: toxicity, organism-based; parameters: dose 20 mg/kg, route intravenous; conditions: in vivo, iv
# Mus musculus [3] = assay: Number of L1210 mice cured after i.v. drug dosing on hours 1 and 5; assay type: functional
# Mus musculus [4] = assay: Highest active dose in L1210 lymphoid leukemic mice at dose range of 2.5-20 mg/kg after i.v. drug dosing on hours 1 and 5; assay type: functional
# L1210 [5] = assay: Log of initial tumor cell population minus log of tumor cell population at end of treatment after i.v. drug dosing on hours 1 and 5; assay type: functional, Mus musculus
# DNA topoisomerase 1 [6] = molecular target: T1, DNA topoisomerase 1 (Homo sapiens, UniProt P11387); assay: Inhibition of Topoisomerase I by cleavage complex formation in human HL-60 cells; assay type: cell-based
# T1 sequence (P11387 whole entry): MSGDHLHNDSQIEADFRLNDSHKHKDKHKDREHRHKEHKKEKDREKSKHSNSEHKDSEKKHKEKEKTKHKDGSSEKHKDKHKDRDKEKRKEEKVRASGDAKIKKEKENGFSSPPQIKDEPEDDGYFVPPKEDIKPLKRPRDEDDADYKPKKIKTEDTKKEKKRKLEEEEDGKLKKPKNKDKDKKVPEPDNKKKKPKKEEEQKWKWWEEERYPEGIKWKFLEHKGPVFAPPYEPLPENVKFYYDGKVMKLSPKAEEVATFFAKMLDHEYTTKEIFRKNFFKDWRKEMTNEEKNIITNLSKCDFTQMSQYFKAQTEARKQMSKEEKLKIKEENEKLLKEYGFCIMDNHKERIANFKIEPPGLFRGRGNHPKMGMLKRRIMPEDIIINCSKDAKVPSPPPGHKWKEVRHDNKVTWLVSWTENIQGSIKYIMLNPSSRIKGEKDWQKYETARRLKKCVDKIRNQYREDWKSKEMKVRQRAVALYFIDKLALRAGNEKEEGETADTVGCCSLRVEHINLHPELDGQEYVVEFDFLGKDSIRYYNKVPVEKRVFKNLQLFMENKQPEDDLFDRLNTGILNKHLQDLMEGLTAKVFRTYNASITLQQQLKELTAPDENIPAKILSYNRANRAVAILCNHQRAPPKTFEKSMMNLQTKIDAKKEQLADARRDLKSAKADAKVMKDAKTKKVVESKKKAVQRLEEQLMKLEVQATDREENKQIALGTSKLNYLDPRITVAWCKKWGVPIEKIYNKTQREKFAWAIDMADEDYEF
# Mus musculus [7] = assay: Highest active dose in L1210 lymphoid leukemic mice at range of 1.25-20 mg/kg; assay type: functional
# L1210 [8] = assay: Log of initial tumor cell population minus log of tumor cell population at end of treatment in L1210 lymphoid leukemic mice; assay type: functional, Mus musculus
# Mus musculus [9] = species: Mus musculus; assay: Percent median survival time of treated leukemic mice compared to control; assay type: functional
# Mus musculus [10] = species: Mus musculus; assay: Toxic dose in L1210 lymphoid leukemic mice; assay type: toxicity, organism-based; conditions: in vivo
# Mus musculus [11] = species: Mus musculus; assay: Number of L1210 lymphoid leukemic mice cured out of […]; assay type: functional
# Mus musculus [12] = assay: Highest active dose in L1210 lymphoid leukemic mice at range of 1.35-3.74 mg/kg; assay type: functional
# Mus musculus [13] = assay: Relative survival in L1210 lymphoid leukemic mice after subcutaneous administration on days 1,4,6,8 at dose of 3.5 mg/kg; assay type: functional
# Mus musculus [14] = assay: Relative survival in RAW117-H10 cells implanted mice in comparison to control at dose of 3.5 mg/kg; assay type: functional
# [15] = Number of metastases in K1735-M2 murine melanoma cells after subcutaneous administration on days1,4,6,8 at dose of 3.5 mg/kg; assay type: functional, Mus musculus
# HT-29 [16] = assay: Tumor volume in HT-29 cells after subcutaneous administration on days 16,20,23,27,30,34,37,41,44,48 at dose of 3.5 mg/kg; assay type: functional, Homo sapiens
# Mus musculus [17] = assay: Highest active dose in L1210 lymphoid leukemic mice at dose of 2-4.5 mg/kg; assay type: functional
# Mus musculus [18] = assay: Relative survival in RAW117-H10 cells implanted mice in comparison to control at dose of 6 mg/kg; assay type: functional
# [19] = Number of metastases in K1735-M2 murine melanoma cells after subcutaneous administration on days1,4,6,8 at dose of 6 mg/kg; assay type: functional, Mus musculus
# Mus musculus [20] = assay: Relative survival in L1210 lymphoid leukemic mice after subcutaneous administration on days1,4,6,8 at dose of 6 mg/kg; assay type: functional
# Mus musculus [21] = assay: Relative survival in L1210 lymphoid leukemic mice after subcutaneous administration on days 1,4,6,8 at dose of 3 mg/kg; assay type: functional
# [22] = Number of metastases in K1735-M2 murine melanoma cells after subcutaneous administration on days1,4,6,8 at dose of 3 mg/kg; assay type: functional, Mus musculus
# Mus musculus [23] = assay: Highest active dose in L1210 lymphoid leukemic mice at dose range of 2-4 mg/kg; assay type: functional
# Mus musculus [24] = assay: Relative survival in RAW117-H10 cells implanted mice in comparison to control at dose of 3 mg/kg; assay type: functional
# Mus musculus [25] = assay: Highest active dose in L1210 lymphoid leukemic mice at range of 10-80 mg/kg; assay type: functional
# Mus musculus [26] = assay: Highest active dose in L1210 lymphoid leukemic mice at dose range of 0.3-1.5 mg/kg; assay type: functional
# Mus musculus [27] = assay: Relative survival in L1210 lymphoid leukemic mice after subcutaneous administration on days1,4,6,8 at dose of 1.5 mg/kg; assay type: functional
# Mus musculus [28] = assay: Relative survival in RAW117-H10 cells implanted mice in comparison to control at dose of 1.5 mg/kg; assay type: functional
# HT-29 [29] = assay: Tumor volume in HT-29 cells after subcutaneous administration on days 16,20,23,27,30,34,37,41,44,48 at dose of 1.5 mg/kg; assay type: functional, Homo sapiens
# [30] = Number of metastases in K1735-M2 murine melanoma cells after subcutaneous administration on days1,4,6,8 at dose of 1.5 mg/kg; assay type: functional, Mus musculus
# Mus musculus [31] = assay: Highest active dose in L1210 lymphoid leukemic mice at dose range of 10-40 mg/kg; assay type: functional
# Mus musculus [32] = assay: Highest active dose in L1210 lymphoid leukemic mice at dose of 5.3-12 mg/kg; assay type: functional
# Mus musculus [33] = assay: Highest active dose in L1210 lymphoid leukemic mice at range of 5-20 mg/kg; assay type: functional
# Mus musculus [34] = species: Mus musculus; assay: Toxic dose to L1210 lymphoid leukemic mice; assay type: toxicity, organism-based; conditions: in vivo
# Mus musculus [35] = assay: Highest active dose in L1210 lymphoid leukemic mice at range of 3.63-15.5 mg/kg; assay type: functional
# L1210 [36] = assay: Toxic dose in L1210 murine lymphoid leukemia after i.v. drug dosing on hours 1 and 5; NT means not toxic at 20 mg/kg; assay type: toxicity, organism-based; parameters: dose 20 mg/kg, route intravenous; conditions: mouse, in vivo, iv
# Mus musculus [37] = assay: Highest active dose in L1210 lymphoid leukemic mice after i.v. drug dosing on hours 1 and 5 at dose range of 1.25-20 mg/kg; assay type: functional
# DNA topoisomerase 1 [38] = molecular target: T1, DNA topoisomerase 1; assay: Inhibition of Topoisomerase I by cleavage complex formation in intact human HL-60 cells; assay type: cell-based
# Mus musculus [39] = assay: Highest active dose in L1210 lymphoid leukemic mice at dose range of 2.37-12.00 mg/kg; assay type: functional
# Mus musculus [40] = assay: Median survival time of treated/control animals x 100 after i.v. drug dosing on hours 1 and 5; assay type: functional
# L1210 [41] = assay: Toxic dose in L1210 murine lymphoid leukemia at dose of 20 mg/kg after i.v. drug dosing on hours 1 and 5; NT means not toxic; assay type: toxicity, organism-based; parameters: dose 20 mg/kg, route intravenous; conditions: mouse, in vivo, iv
SMILES,IC50 (DNA topoisomerase 1 [6]),KE (L1210 [8]),T/C (Mus musculus [9]),Toxic dose (Mus musculus [10]),Cures (Mus musculus [11]),further results
CCC(O)(C(=O)[O-])c1cc2n(c(=O)c1CO)Cc1cc3cc([O-])ccc3nc1-2.[Na+].[Na+] (centres undefined),3.2 µM,–,–,–,–,T/C (Mus musculus [1]): 184%; Toxic dose (Mus musculus [2]): Non-toxic; Cures (Mus musculus [3]): 0; Highest active dose (Mus musculus [4]): 20 mg/kg; KE (L1210 [5]): 3.24
CCC1(O)C(=O)OCc2c1cc1n(c2=O)Cc2cc3c([N+](=O)[O-])cccc3nc2-1 (centres undefined),–,5.97,348%,40 mg/kg,5,Highest active dose (Mus musculus [7]): 10 mg/kg
CCC1(O)C(=O)OCc2c1cc1n(c2=O)Cc2cc3cc(N)ccc3nc2-1 (racemic),–,5.97,365%,6.25 mg/kg,3,Highest active dose (Mus musculus [12]): 3.75 mg/kg
CC[C@@](O)(C(=O)[O-])c1cc2n(c(=O)c1CO)Cc1cc3c(N)c4c(cc3nc1-2)OCO4.[Na+],4.3 µM,–,–,–,–,T/C (Mus musculus [13]): 2.56; T/C (Mus musculus [14]): 1.75; Control [15]: 51%; Control (HT-29 [16]): 38%
CC[C@@]1(O)C(=O)OCc2c1cc1n(c2=O)Cc2cc3cc(N)ccc3nc2-1,0.14 µM,>5.99,565%,–,6,Highest active dose (Mus musculus [17]): 4.5 mg/kg
CCC(O)(C(=O)[O-])c1cc2n(c(=O)c1CO)Cc1cc3c(N)c4c(cc3nc1-2)OCO4.[Na+] (racemic),5.5 µM,–,–,–,–,T/C (Mus musculus [18]): 1.4; Control [19]: 98%; T/C (Mus musculus [20]): 1.78
CCC1(O)C(=O)OCc2c1cc1n(c2=O)Cc2cc3cc4c(cc3nc2-1)OCO4 (racemic),–,5.97,325%,8 mg/kg,2,T/C (Mus musculus [21]): 1.22; Control [22]: 65%; Highest active dose (Mus musculus [23]): 2 mg/kg; T/C (Mus musculus [24]): 1.04
CCC1(O)C(=O)OCc2c1cc1n(c2=O)Cc2cc3cc(C)ccc3nc2-1 (racemic),–,4.66,207%,–,0,Highest active dose (Mus musculus [25]): 10 mg/kg
CC[C@@]1(O)C(=O)OCc2c1cc1n(c2=O)Cc2cc3c(N)c4c(cc3nc2-1)OCO4,0.048 µM,5.8,336%,–,4,Highest active dose (Mus musculus [26]): 1.5 mg/kg; T/C (Mus musculus [27]): 1.98; T/C (Mus musculus [28]): 1.25; Control (HT-29 [29]): 17%; Control [30]: 17%
CCC1(O)C(=O)OCc2c1cc1n(c2=O)Cc2cc3c(O)cccc3nc2-1 (racemic),0.9 µM,–,134%,–,0,Highest active dose (Mus musculus [31]): 20 mg/kg
CC[C@@]1(O)C(=O)OCc2c1cc1n(c2=O)Cc2cc3ccccc3nc2-1 [CAMPTOTHECIN],–,4.8,250%,10 mg/kg,1,Highest active dose (Mus musculus [32]): 12 mg/kg
CCC1(O)C(=O)OCc2c1cc1n(c2=O)Cc2cc3cc(Cl)ccc3nc2-1 (racemic),–,5.97,280%,–,2,Highest active dose (Mus musculus [33]): 10 mg/kg; Toxic dose (Mus musculus [34]): 40 mg/kg
CCC1(O)C(=O)OCc2c1cc1n(c2=O)Cc2cc3cc([N+](=O)[O-])ccc3nc2-1 (racemic),–,5.97,233%,31 mg/kg,0,Highest active dose (Mus musculus [35]): 7.25 mg/kg
CCC1(OC(=O)CN)C(=O)OCc2c1cc1n(c2=O)Cc2cc3cc4c(cc3nc2-1)OCO4.Cl (racemic),0.43 µM,–,236%,–,–,Toxic dose (L1210 [36]): Not toxic; Cures (Mus musculus [3]): 3; KE (L1210 [5]): 5.97; Highest active dose (Mus musculus [37]): 10 mg/kg; IC50 (DNA topoisomerase 1 [38]): 2.5 µM
CC[C@@]1(O)C(=O)OCc2c1cc1n(c2=O)Cc2cc3c(Cl)cccc3nc2-1,0.086 µM,0,150%,–,0,Highest active dose (Mus musculus [39]): 12 mg/kg
CCC1(O)C(=O)OCc2c1cc1n(c2=O)Cc2cc3c(NC(=O)CN)cccc3nc2-1.Cl (racemic),0.57 µM,–,–,–,–,T/C (Mus musculus [40]): 180%; Cures (Mus musculus [3]): 0; KE (L1210 [5]): 2.95; Toxic dose (L1210 [41]): Non-toxic; Highest active dose (Mus musculus [37]): 20 mg/kg; IC50 (DNA topoisomerase 1 [38]): > 30 µM
